Broadly, the ED50 is the midpoint of the dose-response relation.

Where a name gives a salt, the structure may show the parent alone. A value given as a limit tells only on which side of the number the result lay.

The subject of assay [1] is Straub Tail induced by oxymorphone. The assay can be described thus: Antagonism of Straub Tail induced by oxymorphone in mice (antagonist activity). The class given is in vivo, mouse. As to conditions: antagonism of Straub Tail induced by oxymorphone (2 mg./kg. s.c.) in 50 percent of mice, reported as free base; for ED50 Antagonist Activity, Oxymorphone Straub Tail: s.c., tartrate; for ED50: Mus musculus, sc. On the procedure: ^2 Antagonism of Straub Tail induced by oxymorphone (2 mg./kg. s.c.) in 50 percent of mice.

For assay [2], the system named is phenylquinone induced writhings. The assay can be described thus: Phenylquinone writhing, mouse s.c. (agonist activity). Type of assay: in vivo. As to conditions: 50 percent reduction in number of phenylquinone induced writhings, tested as salts, reported as free base; for ED50 Agonist Activity, Phenylquinone Writhing: tartrate; for ED50: Mus musculus, sc. From the text: ^1 A 50 percent reduction in number of phenylquinone induced writhings (Siegmund, E.A. et al., Proc. Soc. Biol. & Med. 95, 729; 1957).

For assay [3], the system named is agonist or antagonist activity in mice and rats. The assay can be described thus: Agonist and/or antagonist activity in mice and rats, overall assessment of the testing results. The class given is in vivo. As to conditions: conclusion from Table I.
The subject of assay [4] is analgesic effect induced by morphine. The assay can be described thus: Morphine antagonism, rat tail flick (antagonist activity). As to conditions: sc, read-out: ED50 Antagonist Activity, Morphine Antagonism Rat Tail Flick.
The conditions of assay [5]: prior art; cited from earlier work.

On to `COc1ccc2c(c1)[C@]13CCN(CC4CC4)[C@H](C2)[C@@H]1OC(C)(C)OC3.O=C(O)C(O)C(O)C(=O)O` (single isomer, unassigned) [(+)-XIVd, (+)-17-Cyclopropylmethyl-7,7-dimethyl-3-methoxy-6,8-dioxamorphinan-(-)-hydrogen tartrate], for which the “ED50 Antagonist Activity, Oxymorphone Straub Tail” value in assay [1] is more than 40 mg/kg. Besides, in assay [2], the “ED50 Agonist Activity, Phenylquinone Writhing” value was more than 40 mg/kg.

On to `CC1(C)OCC23CCN(CC4CC4)C(Cc4ccc(O)cc42)C3O1` (single isomer, unassigned) [(+)-XVd, (+)-17,Cyclopropylmethyl-7,7-dimethyl-3-hydroxy-6,8-dioxamorphinan (-) tartrate], for which the ED50 in assay [1] was more than 40 mg/kg; in assay [2], more than 10 mg/kg.

For `COc1ccc2c(c1)[C@]13CCN(CC4CC4)[C@H](C2)[C@@H]1OC(C)(C)OC3.O=C(O)C(O)C(O)C(=O)O` (single isomer, unassigned) [(-)-XIVd, (- )-17-Cyclopropylmethyl-7,7-dimethyl-3-methoxy-6,8-dioxamorphinan-(+ )-hydrogen tartrate], the “agonist or antagonist activity (in words)” value in assay [3] is reported as “Outstanding”. Also, the “ED50 Antagonist Activity, Oxymorphone Straub Tail” value in assay [1] was 5 mg/kg. Moreover, in assay [4], the ED50 stood at 1.19 mg/kg. In addition, the “ED50 Agonist Activity, Phenylquinone Writhing” value in assay [2] was found to be 0.066 mg/kg.

With `CC1(C)OC[C@]23CCN(CC4CC4)[C@H](Cc4ccc(O)cc42)[C@@H]3O1.O=C(O)C(O)C(O)C(=O)O` (single isomer, unassigned) [(-)-XVd, (- )-17-Cyclopropylmethyl-7,7-dimethyl-3-hydroxy-6,8-dioxamorphinan (+ ) tartrate], in assay [3], the “agonist or antagonist activity (in words)” value is listed as “Outstanding”. Further, the ED50 came to 0.09 mg/kg in assay [1], 0.032 mg/kg in assay [4] and 0.005 mg/kg in assay [2].

Take `COc1ccc2c(c1)[C@]13CCN(C)[C@H](C2)[C@@H]1OCOC3` [IXa, 3-Methoxy-17-methyl-6,8-dioxamorphinan]: the ED50 was more than 20 mg/kg in assay [1] and approximately 5 mg/kg in assay [2].

As for `COc1ccc2c(c1)[C@]13CCN(C)[C@H](C2)[C@]1(C)OCOC3` [IXc, 14β,17-Dimethyl-3-methoxy-6,8-dioxamorphinan], the figures for the ED50 in assay [1] and in assay [2] were more than 40 mg/kg and 0.31 mg/kg, respectively.

As for `COc1ccc2c(c1)[C@]13CCN(C)[C@H](C2)[C@@H]1OC(C)(C)OC3` [IXd, 3-Methoxy-7,7,17-trimethyl-6,8-dioxamorphinan], the figures for the ED50 in assay [1] and in assay [2] were more than 40 mg/kg and 0.63 mg/kg, respectively.

As for `COc1ccc2c(c1)[C@]13CCN[C@H](C2)[C@@H]1OCOC3.O=C(O)/C=C/C(=O)O` [XIIa, 3-Methoxy-6,8-dioxamorphinan hydrogen fumarate], the values for the median effective dose (ED50) in assay [1] and in assay [2] were more than 20 mg/kg and 7.4 mg/kg, respectively.

As for `COc1ccc2c(c1)[C@]13CCN[C@H](C2)[C@]1(C)OCOC3.O=C(O)/C=C/C(=O)O` [XIIc, 3-Methoxy-14β-methyl-6,8-dioxamorphinan hydrogen fumarate], the ED50 was approximately 30 mg/kg in assay [1] and 2 mg/kg in assay [2].

For the compound `COc1ccc2c(c1)[C@]13CCN(CC4CC4)[C@H](C2)[C@@H]1OCOC3.O=C(O)/C=C/C(=O)O` [XIVa, 17-Cyclopropylmethyl-3-methoxy-6,8-dioxamorphinan hydrogen fumarate], the “agonist or antagonist activity (in words)” value in assay [3] is “Outstanding”. The ED50 in assay [1] is approximately 15 mg/kg; in assay [2] it was 0.3 mg/kg.

As to `COc1ccc2c(c1)[C@]13CCN(CC4CCC4)[C@H](C2)[C@@H]1OCOC3` [XIVb, 17-Cyclobutylmethyl-3-methoxy-6,8-dioxamorphinan], the ED50 in assay [1] is more than 40 mg/kg; in assay [2], 2 mg/kg.

`COc1ccc2c(c1)[C@]13CCN(CC4CC4)[C@H](C2)[C@]1(C)OCOC3` [XIVc, 17-Cyclopropylmethyl-3-methoxy-14β-methyl-6,8-dioxamorphinan]: the 50% effective dose (ED50) in assay [1] was more than 40 mg/kg; in assay [2], approximately 5 mg/kg.

`COc1ccc2c(c1)[C@]13CCN(CC4CC4)[C@H](C2)[C@@H]1OC(C)(C)OC3.O=C(O)/C=C/C(=O)O` [XIVd, 17-Cyclopropylmethyl-7,7-dimethyl-3-methoxy-6,8-dioxamorphinan hydrogen fumarate]: the “agonist or antagonist activity (in words)” value in assay [3] was “Outstanding”. Moreover, the ED50 is approximately 30 mg/kg in assay [1] and 0.29 mg/kg in assay [2].

On to `COc1ccc2c(c1)[C@]13CCN(CC4CCC4)[C@H](C2)[C@@H]1OC(C)(C)OC3.O=C(O)/C=C/C(=O)O` [XIVe, 17-Cyclobutylmethyl-7,7-dimethyl-3-methoxy-6,8-dioxamorphinan hydrogen fumarate], for which the ED50 is more than 40 mg/kg in assay [1] and 6.1 mg/kg in assay [2].

On to `Oc1ccc2c(c1)[C@]13CCN(CC4CC4)[C@H](C2)[C@@H]1OCOC3` [XVa, 17-Cyclopropylmethyl-3-hydroxy-6,8-dioxamorphinan], for which, in assay [3], the “agonist or antagonist activity (in words)” value was “Outstanding”. Further, the results for the 50% effective dose (ED50) in assay [1], in assay [4] and in assay [2] were 0.3 mg/kg, 0.12 mg/kg and 0.02 mg/kg, respectively.

Turning to `O=C(O)/C=C/C(=O)O.Oc1ccc2c(c1)[C@]13CCN(CC4CCC4)[C@H](C2)[C@@H]1OCOC3` [XVb, 17-Cyclobutylmethyl-3-hydroxy-6,8-dioxamorphinan fumarate], the “agonist or antagonist activity (in words)” value in assay [3] is recorded as “Outstanding”. The results for the ED50 in assay [1], in assay [4] and in assay [2] were approximately 15 mg/kg, approximately 9 mg/kg and 0.14 mg/kg, respectively.

As to `C[C@@]12OCOC[C@@]13CCN(CC1CC1)[C@@H]2Cc1ccc(O)cc13.O=C(O)/C=C/C(=O)O` [XVc, 17-Cyclopropylmethyl-3-hydroxy-14β-methyl-6,8-dioxamorphinan hydrogen fumarate], the “agonist or antagonist activity (in words)” value in assay [3] is on record as “Outstanding”. In addition, the ED50 in assay [1] was 0.63 mg/kg; in assay [4] it was 0.1 mg/kg; in assay [2], 0.064 mg/kg.

In the case of `CC1(C)OC[C@]23CCN(CC4CC4)[C@H](Cc4ccc(O)cc42)[C@@H]3O1.O=C(O)/C=C/C(=O)O` [XVd, 17-Cyclopropylmethyl-7,7-dimethyl-3-hydroxy-6,8-dioxamorphinan hydrogen fumarate], the “agonist or antagonist activity (in words)” value in assay [3] is recorded as “Outstanding”. The values for the 50% effective dose (ED50) in assay [1], in assay [4] and in assay [2] were 0.16 mg/kg, 0.096 mg/kg and 0.009 mg/kg, respectively.

As for `CC1(C)OC[C@]23CCN(CC4CCC4)[C@H](Cc4ccc(O)cc42)[C@@H]3O1.O=C(O)/C=C/C(=O)O` [XVe, 17-Cyclobutylmethyl-7,7-dimethyl-3-hydroxy-6,8-dioxamorphinan hydrogen fumarate], in assay [3], the “agonist or antagonist activity (in words)” value is listed as “Outstanding”. The values for the ED50 in assay [1] and in assay [2] were approximately 15 mg/kg and 0.04 mg/kg, respectively.

Regarding `CN1CC[C@]23COCO[C@H]2[C@H]1Cc1ccc(O)cc13.O=C(O)/C=C/C(=O)O` [Xa, 3-Hydroxy-17-methyl-6,8-dioxamorphinan fumarate], the ED50 in assay [1] is more than 40 mg/kg; in assay [2], 0.3 mg/kg.

As for `CN1CC[C@]23COCO[C@@]2(C)[C@H]1Cc1ccc(O)cc13.O=C(O)/C=C/C(=O)O` [Xc, 14β,17-Dimethyl-3-hydroxy-6,8-dioxamorphinan fumarate], the 50% effective dose (ED50) was approximately 40 mg/kg in assay [1] and 0.04 mg/kg in assay [2].

Regarding `CN1CC[C@]23COC(C)(C)O[C@H]2[C@H]1Cc1ccc(O)cc13` [Xd, 3-Hydroxy-7,7,17-trimethyl-6,8-dioxamorphinan], the ED50 in assay [1] is more than 40 mg/kg; in assay [2] it was 0.08 mg/kg.

On to `C[C@H]1[C@H]2Cc3ccc(O)cc3[C@]1(C)CCN2CC1CC1` [cyclazocine], for which, in assay [5], the “agonist and antagonist properties” value was “both properties”.
